{"source": "patent US20160024051A1", "about": "“SALTS AND SOLID FORMS OF ISOQUINOLINONES AND COMPOSITION COMPRISING AND METHODS OF USING THE SAME” (INFINITY PHARMACEUTICALS, INC., priority 2013, published 2016)", "key": {"[1]": {"assay": "Stability of Hydrate Form 2: maturation in water or acetic acid: water 1:3 at constant temperature", "type": "physicochemical", "conditions": "40 hours maturation", "description": "Both solids obtained from maturation at 25° C."}, "[2]": {"assay": "Gravimetric vapour sorption (GVS)", "type": "physicochemical", "conditions": "text statements; listed as Form 4", "description": "Sorption isotherms were obtained using a Hiden IGASorp moisture sorption analyser, controlled by CFRSorp software. The sample temperature was maintained at 25° C. by a Huber re-circulating water bath. The humidity was controlled by mixing streams of dry and wet nitrogen, with a total flow rate of 250 ml/min. The relative humidity (RH) was measured by a calibrated Vaisala RH probe (dynamic range of 0-95% RH), located near the sample. The weight change, (mass relaxation) of the sample as a function of % RH was constantly monitored by the microbalance (accuracy ±0.001 mg). Typically 10-20 mg of sample was placed in a tared mesh stainless steel basket under ambient conditions. The sample was loaded and unloaded at 40% RH and 25° C. (typical room conditions). A moisture sorption isotherm was performed as outlined below (2 scans giving 1 complete cycle). The standard isotherm was performed at 25° C. at 10% RH intervals over a 0-90% RH range.\nThe software uses a least squares minimisation procedure together with a model of the mass relaxation, to predict an asymptotic value. The measured mass relaxation value must be within 5% of that predicted by the software, before the next % RH value is selected. The minimum equilibration time was set to 1 hour and the maximum to 4 hours. The sample was recovered after completion of the isotherm and re-analysed by XRPD."}, "[3]": {"assay": "Drying at 50° C./vacuum, re-analysis by XRPD", "type": "physicochemical", "method": "(§1) Samples from the screen using amorphous free base Compound 1 were analysed by ^1H-NMR and DSC, and re-analysis by XRPD was also carried out after drying at 50° C./vacuum and storage at 40° C./75% RH (the same sample was dried and stored at elevated humidity)."}, "[4]": {"assay": "Storage at 40° C./75% RH (elevated humidity) for 1 week, re-analysis by XRPD/HPLC", "method": "The crystalline solids were filtered, dried at ambient conditions, and stored at 40° C./75% RH for 1 week and analyzed by ^1H NMR/IC.\nas §1"}, "[5]": {"assay": "Storage at 25° C./93% RH for 1 week, re-analysis by XRPD/HPLC", "type": "physicochemical", "conditions": "after 1 week, XRPD"}, "[6]": {"assay": "Polymorphism study: maturation (temperature cycling RT to 50° C.) in solvents, XRPD", "type": "physicochemical", "conditions": "three days; listed as amorphous material", "description": "One of 21 solvents was added to each vial in a number of aliquots (up to 30 volumes), with shaking. All the samples were then placed under maturation between RT to 50° C. (4 hours at each temperature) for 3 days. After maturation the samples were analysed by XRPD. Clear solutions were cooled to −20° C. (freezer). If no precipitation occurred samples were evaporated at RT.\nSamples were placed under maturation between RT-50° C. (4 hours cycle) for 3 days. After maturation the samples were analyzed by XRPD. Clear solutions were then cooled to −20° C. (freezer). If no precipitation occurred, samples were evaporated at RT.\nThe corresponding solvents and solvent mixtures were added in portions of (a total of) 5, 10, 20, and 30 volumes at 50° C., with shaking, aiming for clear solutions. After each addition, the vials were allowed to shake for 20 minutes, after which observations were made. Solutions were allowed to evaporate, whereas slurries were set for 8 hour temperature cycling maturation, between RT and 50° C., for 5 days.\nThe oils obtained by solvent evaporation were used for the maturation screen. Anhydrous solvents (5 volumes; 100 μL) were used in order to minimise the amount of water present. Any solutions were allowed to slowly evaporate, whereas slurries were set for 8 hour temperature cycling maturation, between RT and 50° C. […] These were matured for a further 24 hours before performing XRPD analysis.\nThe selected solvents and solvent mixtures (5 to 20 volumes) were added with stirring. Any solutions were allowed to slowly evaporate, whereas slurries were set for 8 hour temperature cycling maturation, between RT and 50° C., for 2 days.\nCrystals were ground in order to analyse them by XRPD. Suspensions were set for temperature cycling for a total of five days after which time XRPD analysis was carried out."}}, "data": [{"smiles": "COc1cc(-c2cccc3cc([C@H](C)Nc4nc(N)ncc4C#N)n(-c4ccccc4)c(=O)c23)ccn1.O", "note": "[Form 2 of free base of Compound 1]", "values": [{"measurement": "XRPD", "setting": "[1]; Acetic acid:water 1:3, 25° C.", "result": "Hydrate Form 2"}, {"measurement": "XRPD", "setting": "[1]; Water, 25° C.", "result": "Hydrate Form 2"}, {"measurement": "XRPD", "setting": "[1]; Water, 90° C.", "result": "Hydrate Form 2"}]}, {"smiles": "COc1cc(-c2cccc3cc([C@H](C)Nc4nc(N)ncc4C#N)n(-c4ccccc4)c(=O)c23)ccn1", "note": "[Form 4 of the free base of Compound 1]", "values": [{"measurement": "GVS behaviour (hydration / desolvation)", "setting": "[2]", "result": "hydrates above 80% RH, but reversibly dehydrates back at 40% RH"}, {"measurement": "XRPD after drying at 50° C./vacuum", "setting": "[3]; screening sample from H2O", "result": "No changes"}, {"measurement": "XRPD after Storage at 40° C./75% RH", "setting": "[4]; screening sample from H2O, after drying", "result": "No changes"}]}, {"smiles": "COc1cc(-c2cccc3cc([C@H](C)Nc4nc(N)ncc4C#N)n(-c4ccccc4)c(=O)c23)ccn1", "note": "[Form 5 of the free base of Compound 1]", "values": [{"measurement": "XRPD after drying at 50° C./vacuum", "setting": "[3]; screening sample from 2-MeTHF", "result": "No changes"}, {"measurement": "XRPD after drying at 50° C./vacuum", "setting": "[3]; screening sample from Acetone", "result": "No changes"}, {"measurement": "XRPD after drying at 50° C./vacuum", "setting": "[3]; screening sample from Acetonitrile", "result": "No changes"}, {"measurement": "XRPD after drying at 50° C./vacuum", "setting": "[3]; screening sample from DCM", "result": "No changes"}, {"measurement": "XRPD after drying at 50° C./vacuum", "setting": "[3]; screening sample from DCM:MeOH 1:1", "result": "No changes"}, {"measurement": "XRPD after drying at 50° C./vacuum", "setting": "[3]; screening sample from DME", "result": "No changes"}, {"measurement": "XRPD after drying at 50° C./vacuum", "setting": "[3]; screening sample from EtOAc", "result": "No changes"}, {"measurement": "XRPD after drying at 50° C./vacuum", "setting": "[3]; screening sample from EtOH", "result": "No changes"}, {"measurement": "XRPD after drying at 50° C./vacuum", "setting": "[3]; screening sample from EtOH/5% water", "result": "No changes"}, {"measurement": "XRPD after drying at 50° C./vacuum", "setting": "[3]; screening sample from IPA", "result": "No changes"}, {"measurement": "XRPD after drying at 50° C./vacuum", "setting": "[3]; screening sample from MIBK", "result": "No changes"}, {"measurement": "XRPD after drying at 50° C./vacuum", "setting": "[3]; screening sample from MeCN/5% water", "result": "No changes"}, {"measurement": "XRPD after drying at 50° C./vacuum", "setting": "[3]; screening sample from MeOH", "result": "No changes"}, {"measurement": "XRPD after drying at 50° C./vacuum", "setting": "[3]; screening sample from TBME", "result": "No changes"}, {"measurement": "XRPD after drying at 50° C./vacuum", "setting": "[3]; screening sample from THF", "result": "No changes"}, {"measurement": "XRPD after drying at 50° C./vacuum", "setting": "[3]; screening sample from THF/5% water", "result": "No changes"}, {"measurement": "XRPD after Storage at 40° C./75% RH", "setting": "[4]; screening sample from 2-MeTHF, after drying", "result": "No changes"}, {"measurement": "XRPD after Storage at 40° C./75% RH", "setting": "[4]; screening sample from Acetone, after drying", "result": "No changes"}, {"measurement": "XRPD after Storage at 40° C./75% RH", "setting": "[4]; screening sample from Acetonitrile, after drying", "result": "No changes; NMR"}, {"measurement": "XRPD after Storage at 40° C./75% RH", "setting": "[4]; screening sample from DCM, after drying", "result": "No changes"}, {"measurement": "XRPD after Storage at 40° C./75% RH", "setting": "[4]; screening sample from DCM:MeOH 1:1, after drying", "result": "No changes"}, {"measurement": "XRPD after Storage at 40° C./75% RH", "setting": "[4]; screening sample from DME, after drying", "result": "No changes"}, {"measurement": "XRPD after Storage at 40° C./75% RH", "setting": "[4]; screening sample from EtOAc, after drying", "result": "No changes"}, {"measurement": "XRPD after Storage at 40° C./75% RH", "setting": "[4]; screening sample from EtOH, after drying", "result": "No changes"}, {"measurement": "XRPD after Storage at 40° C./75% RH", "setting": "[4]; screening sample from EtOH/5% water, after drying", "result": "No changes"}, {"measurement": "XRPD after Storage at 40° C./75% RH", "setting": "[4]; screening sample from IPA, after drying", "result": "No changes"}, {"measurement": "XRPD after Storage at 40° C./75% RH", "setting": "[4]; screening sample from MIBK, after drying", "result": "No changes"}, {"measurement": "XRPD after Storage at 40° C./75% RH", "setting": "[4]; screening sample from MeCN/5% water, after drying", "result": "No changes"}, {"measurement": "XRPD after Storage at 40° C./75% RH", "setting": "[4]; screening sample from MeOH, after drying", "result": "No changes"}, {"measurement": "XRPD after Storage at 40° C./75% RH", "setting": "[4]; screening sample from TBME, after drying", "result": "No changes"}, {"measurement": "XRPD after Storage at 40° C./75% RH", "setting": "[4]; screening sample from THF, after drying", "result": "No changes; NMR"}, {"measurement": "XRPD after Storage at 40° C./75% RH", "setting": "[4]; screening sample from THF/5% water, after drying", "result": "No changes"}]}, {"smiles": "COc1cc(-c2cccc3cc([C@H](C)Nc4nc(N)ncc4C#N)n(-c4ccccc4)c(=O)c23)ccn1", "note": "[amorphous free base of Compound 1]", "values": [{"measurement": "Stability at 25° C./93% RH", "setting": "[5]", "result": "No changes after 1 week"}, {"measurement": "XRPD form after maturation in acetic acid: water 1:1", "setting": "[6]", "result": "Form 6"}, {"measurement": "Stability at 40° C./75% RH", "setting": "[4]; after 1 week, XRPD", "result": "No changes after 1 week"}, {"measurement": "solid form after storage at elevated humidity", "setting": "[4]; elevated humidity conditions, not specified in the sentence", "result": "No crystallisation"}]}]}
